Data from US20210246128A1, “BICYCLE TOPOISOMERASE I INHIBITING COMPOUNDS, PROCESS FOR PREPARATION AND USE THEREOF” (Council of Scientific & Industrial Research, priority 2018, published 2021).
Values after ≈ are worked out from the molar mass of the structure shown. Read-outs that look alike come from different tables or passages of the source. Each block holds one molecule with its values, some of them ahead of it.

Columns and labels:
Plasma stability assay = format: in vitro ADME; details: pH 7.4, 37° C., 1 μM
Experimental: The stock solution of 10 mM of test compound in DMSO was prepared and stored at 4° C. 25 μM stock of test compound was prepared in acetonitrile: water by diluting from 10 mM stock (i.e. 2.5 μL of 10 mM stock solution was added to 997.5 μL of acetonitrile: water (50:50). The frozen plasma was thawed at room temperature and centrifuged at 1400×RCF (relative centrifugal force) 4° C., for 15 minutes. Approximately 90% of the clear supernatant fraction was transferred to a separate tube and was used for the assay.
For 0 min samples, plasma was heat inactivated at 56° C. for 45 min. To 72 μL of heat inactivated plasma, 3 μL of 25 μM test compound was added. A 25 μL aliquot of the mixture was taken and crashed with 200 μL of acetonitrile containing internal standard and further processed along with other time points. For other time point samples, final working stock of 1 μM was prepared by diluting in plasma (i.e. 8 μL of 25 μM acetonitrile:water stock was added to 192 μL of plasma). 200 μL of plasma containing the test compound was incubated for 2 hrs at 37° C. in shaker water bath with gentle shaking. 25 μL aliquot of sample at 0, 15, 30, 60 and 120 min was precipitated immediately with 200 μL of acetonitrile containing internal standard and centrifuged at 4000×RCF, 4° C. for 20 minutes. 150 μL of supernatant was diluted with 150 μL of water and analyzed on LC-MS/MS.

[1] = biological target: T1, recombinant human TopI (HTopI) (Homo sapiens, UniProt P11387); experiment: Gel based plasmid DNA relaxation assay with recombinant TopI (in vitro); format: biochemical; details: for inhibition at 10 µM: read-out: In vitro inhibition at 10 μM; for IC50: plasmid DNA relaxation
T1 sequence (P11387 1-765): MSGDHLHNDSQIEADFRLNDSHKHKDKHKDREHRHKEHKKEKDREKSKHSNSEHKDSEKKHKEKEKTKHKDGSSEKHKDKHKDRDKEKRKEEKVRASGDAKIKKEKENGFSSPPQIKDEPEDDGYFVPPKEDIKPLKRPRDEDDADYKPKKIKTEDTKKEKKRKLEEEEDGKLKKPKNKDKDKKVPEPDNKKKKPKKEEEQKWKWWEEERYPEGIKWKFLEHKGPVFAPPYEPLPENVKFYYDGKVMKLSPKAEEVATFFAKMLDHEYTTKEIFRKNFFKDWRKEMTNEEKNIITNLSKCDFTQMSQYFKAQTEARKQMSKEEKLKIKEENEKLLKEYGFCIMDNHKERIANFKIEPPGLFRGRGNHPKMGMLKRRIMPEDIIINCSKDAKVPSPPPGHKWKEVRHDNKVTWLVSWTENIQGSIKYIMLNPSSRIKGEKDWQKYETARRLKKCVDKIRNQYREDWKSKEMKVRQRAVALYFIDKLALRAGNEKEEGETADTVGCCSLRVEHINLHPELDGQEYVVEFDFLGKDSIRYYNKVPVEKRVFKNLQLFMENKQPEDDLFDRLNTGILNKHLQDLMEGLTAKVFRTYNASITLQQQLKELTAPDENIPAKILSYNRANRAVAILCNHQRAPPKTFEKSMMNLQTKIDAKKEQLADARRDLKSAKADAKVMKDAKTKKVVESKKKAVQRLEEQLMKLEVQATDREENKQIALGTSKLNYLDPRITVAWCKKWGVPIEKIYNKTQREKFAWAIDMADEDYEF
Experimental: (§1) Human ToPI Inhibition in Plasmid DNA Relaxation Assays with Recombinant TopI (In Vitro) or MCF7 Cell Lysates (Ex Vivo)
(§2) Relaxation of supercoiled pBSSK(^+) DNA with recombinant human TopI (HTopI) at a molar ratio of 3:1 at 37° C. for 30 minutes was performed

[2] = Lipophilicity assay (octanol/buffer Log D); details: octanol / sodium phosphate buffer pH 7.4
Experimental: 1.56 g NaH2PO4.2H2O was dissolved in 0.5 L water in a 1 L beaker. After adjusting pH to 7.4 using NaOH solution, the volume was made up to 1 L. Equal volumes of sodium phosphate buffer (10 mM, pH 7.4) and n-octanol were added to a separation funnel and mixed thoroughly by shaking and inverting the funnel several times. The two layers were allowed to separate for 2 days and then dispensed in two separate glass bottles. 10 mM stock solution was prepared in 100% DMSO and stored at 4° C. 500 μL of organic phase (1-octanol) was added to each well of a 2 mL deep well plate, followed by 500 μL of buffer and 15 μL of test substance was added. The plate was vortexed for 1 hr on a plate shaker at 1200 rpm. After incubation, the samples were allowed to equilibrate for 20 min and then centrifuged at 4000 rpm for 30 min for complete phase separation and analysed by LC-UV.
Log D=Log(area of octanol/area of buffer)
Mean, SD and % CV for each set of triplicates were calculated

[3] = Caco-2 permeability (21 day culture of Caco-2 cell monolayer); format: in vitro ADME; details: human; for recovery at 120 min, 10 μM: Caco-2, pH 7.4, Caco-2; for Papp A→B at 120 min, 10 μM / Papp B→A at 120 min, 10 μM: pH 7.4, Caco-2, 10 μM; for Papp A→B at 120 min, 10 μM: read-out: Papp Apical to Basal; for Papp B→A at 120 min, 10 μM: read-out: Papp Basal to Apical
Experimental: 5 mL of 100 mM sodium pyruvate, 5 mL of 10× non-essential amino acids, 5 mL of penstrep were added to 100 mL of heat inactivated foetal bovine serum to 385 mL of DMEM aseptically and mixed thoroughly. One vial of Hank's balanced salt (Sigma-H1387) was dissolved in 900 mL of milli Q water; adjusted the pH to 7.4 and made up the volume to 1000 mL with the same. The solution was filter sterilized and stored at 4° C. Stock solution of test compound (10 mM) was prepared in DMSO. 10 mM stock was diluted with HBSS Buffer to a final concentration of 10 μM.
250 μL of DMEM was added to the basal compartment of 96 well multi-screen Caco-2 plate and seeded 12000 cells/well (0.16×10^6 cells/ml) in all the apical wells required and one well with only media as blank without cells, placed the Caco-2 plate in CO2 incubator at 37° C. for proliferation of cells.
On the day of assay, medium was removed and washed twice with HBSS Buffer and incubated with HBSS buffer for 30 min in an incubator and wells with TEER values >230 ohm·cm^2 were selected for the incubation. 75 μL of test compound was added to apical wells and 250 μL of HBSS buffer with 2% BSA was added to basal wells. 25 μL of basal samples was collected at 120 min and processed as stated below.
250 μL of test compound was added to basal wells and 75 μL of HBSS buffer with 2% BSA was added to apical wells. 25 μL of apical samples was collected at 120 min and processed as stated below.
Single point calibration curve in HBSS buffer with 2% BSA was used. Donor samples were diluted 1:1 with HBSS containing 2% BSA and receiver samples were diluted with 1.1 HBSS buffer and precipitated with 200 μL of acetonitrile containing internal standard and vortexed for 5 min @ 1000 rpm, centrifuged at 4000 rpm for 10 min. Finally 100 μL of supernatant was diluted with 200 μL of water and submitted for LC-MS/MS analysis.

[4] = biological target: T2, endogenous TopI from the whole cell extracts of human breast adenocarcinoma (MCF7) cell (Homo sapiens, UniProt P11387); experiment: Plasmid DNA relaxation assay with MCF7 cell lysates (ex vivo); format: biochemical; details: MCF7 cell lysates as source of TopI
T2 construct: TopI enzyme in the extract is conserved in its native structure among a plethora of other cellular proteins; endogenous in cells; host or cells: MCF7 whole cell extract
T2 sequence (P11387 1-765): T1 sequence (P11387 1-765)
Experimental: as §1, §2
cellular extracts were utilized as a source of TopI (ex vivo) in plasmid DNA relaxation assays. TopI enzyme in the extract is conserved in its native structure among a plethora of other cellular proteins.

[5] = Solubility assay (pH 7.4 pION buffer, UV); format: physicochemical; details: pH 7.4 pION buffer, aqueous buffer, kinetic from dmso stock; pH 7.4 buffer, 18 hours incubation; read-out: Avg. Solubility (μg/mL) at pH 7.4
Experimental: 5 μL of 20 mM DMSO stock from the stock plate was added to the reaction deep well plate containing 495 μL of pH 7.4 pION buffer (including DMSO control) respectively and the samples were mixed and incubated for 18 hours. The plate was sealed well during the incubation process. The DMSO content in the sample was <1.0%. The concentration in deep well plates was 200 μM. 4 μL of 20 mM stock (including DMSO control) was added to 996 μL of acetonitrile to prepare the working stock plate. 75 μL of working stock was added to 75 μL of blank buffer and read on spectrophotometer as reference plate at 240 nm. At the end of the incubation period, 100 μL of sample from storage plate was vacuum filtered using a filter plate. This step wets the filters and the filtrate was discarded. Another 200 μL of the sample from deep well plate was vacuum filtered in to a new filter collection plate. 75 μL of the filtrate from the filter collection plate was transferred to a UV sample plate. 75 μL of acetonitrile was added to this UV plate. The solution was mixed and the spectrum was read using the UV spectrophotometer at 240 nm. Plates were read on spectramax using SoftMax Pro software version 5.3.

[6] = recombinant human TopI, at 10 μM

Molecule: Topotecan [reference compound]
- Mean % remaining at 2 hrs in human Plasma (Plasma stability assay): 11.5%

- inhibition at 10 µM [1, 6]: 45%
Molecule: COc1ccc(-c2ccc3ncc(-c4nnco4)c(NCCCn4ccnc4)c3c2)c(OC)c1 [Compound 27, N-(3-(1H-imidazol-1-yl)propyl)-6-(2,4-dimethoxyphenyl)-3-(1,3,4-oxadiazol-2-yl)quinolin-4-amine]

- inhibition at 10 µM [1, 6]: 30%
Molecule: Brc1ccc2ncc(-c3nnco3)c(NCCCn3ccnc3)c2c1 [Compound 17, N-(3-(1H-imidazol-1-yl)propyl)-6-bromo-3-(1,3,4-oxadiazol-2-yl)quinolin-4-amine]

Molecule: Nc1ccc(-c2ccc3ncc(-c4nnco4)c(NCCCn4ccnc4)c3c2)cc1 [Compound 20, N-(3-(1H-imidazol-1-yl)propyl)-6-(4-aminophenyl)-3-(1,3,4-oxadiazol-2-yl)quinolin-4-amine]
- Mean % remaining at 2 hrs in human Plasma (Plasma stability assay): 91.32%
- Log D @ pH 7.40 Mean [2]: 2.56
- recovery at 120 min, 10 μM ([3]; read-out: A to B % Recovery): 72.7%
- recovery at 120 min, 10 μM ([3]; read-out: B to A % Recovery): 91.7%
- Papp A→B at 120 min, 10 μM [3]: 0.63 ×10⁻⁶ cm/s
- Papp B→A at 120 min, 10 μM [3]: 44.2 ×10⁻⁶ cm/s
- IC50 [4]: 2250 nM
- IC50 ([1]; recombinant human TopI): 24 nM

- inhibition at 10 µM [1, 6]: 30%
Molecule: CCOC(=O)c1cnc2ccc(Br)cc2c1NCCCn1ccnc1 [Compound 15, ethyl 4-((3-(1H-imidazol-1-yl)propyl)amino)-6-bromoquinoline-3-carboxylate]

- Log D @ pH 7.40 Mean [2]: −0.29
Molecule: COCCc1ccc(OCC(O)CNC(C)C)cc1 (stereo not drawn) [Metoprolol, reference compound]

- IC50 [4]: 3000 nM
- IC50 ([1]; recombinant human TopI): 2360 nM
Molecule: COc1ccc(-c2ccc3ncc(-c4nnco4)c(NCCCn4ccnc4)c3c2)cc1C [Compound 28, N-(3-(1H-imidazol-1-yl)propyl)-6-(4-methoxy-3-methylphenyl)-3-(1,3,4-oxadiazol-2-yl)quinolin-4-amine]

- inhibition at 10 µM [1, 6]: 35%
Molecule: CCOC(=O)c1cnc2ccc(-c3ccc(OC)cc3)cc2c1NCCCn1ccnc1 [Compound 78, ethyl 4-((3-(1H-imidazol-1-yl)propyl)amino)-6-(4-methoxyphenyl)quinoline-3-carboxylate]

- solubility at 18 h [5]: 3.31 µg/mL (≈ 12.5 µM)
Molecule: CCCSc1ccc2nc(NC(=O)OC)[nH]c2c1 [Albendazole, reference compound]

Molecule: COc1ccc(-c2ccc3ncc(-c4nnc(N)o4)c(NCCCn4ccnc4)c3c2)cc1 [Compound 52, 5-(4-(3-(1H-imidazol-1-yl)propylamino)-6-(4-methoxyphenyl)quinolin-3-yl)-1,3,4-oxadiazol-2-amine]
- inhibition at 10 µM [1]: 45%

- recovery at 120 min, 10 μM ([3]; read-out: A to B % Recovery): 68%
- recovery at 120 min, 10 μM ([3]; read-out: B to A % Recovery): 72.7%
- Papp A→B at 120 min, 10 μM [3]: 19.1 ×10⁻⁶ cm/s
- Papp B→A at 120 min, 10 μM [3]: 13.3 ×10⁻⁶ cm/s
Molecule: CC(C)NCC(O)COc1cccc2ccccc12 (stereo not drawn) [Propranolol, reference compound]

- IC50 ([1]; recombinant human TopI): 5240 nM
Molecule: COc1ccc(-c2ccc3ncc(-c4ccc(N)nc4)c(NCCCn4ccnc4)c3c2)cc1 [Compound 73, N-(3-(1H-imidazol-1-yl)propyl)-3-(6-aminopyridin-3-yl)-6-(4-methoxyphenyl)quinolin-4-amine]

- Mean % remaining at 2 hrs in human Plasma (Plasma stability assay): 0.00%
Molecule: CC(C)[N+](C)(CCOC(=O)C1c2ccccc2Oc2ccccc21)C(C)C [Propantheline, reference compound]

- inhibition at 10 µM [1, 6]: 55%
Molecule: COc1ccc(-c2ccc3ncc(-c4nnc(C)o4)c(NCCCn4ccnc4)c3c2)cc1 [Compound 54, N-(3-(1H-imidazol-1-yl)propyl)-6-(4-methoxyphenyl)-3-(5-methyl-1,3,4-oxadiazol-2-yl)quinolin-4-amine]

- inhibition at 10 µM [1, 6]: 50%
Molecule: COc1ccc(-c2ccc3ncc(-c4nnc(C)o4)c(NCCN4CCOCC4)c3c2)cc1 [Compound 14, 6-(4-methoxyphenyl)-3-(5-methyl-1,3,4-oxadiazol-2-yl)-N-(2-morpholinoethyl)quinolin-4-amine]

- solubility at 18 h [5]: 54 µg/mL (≈ 221 µM)
Molecule: CC(C(=O)O)c1ccc(-c2ccccc2)c(F)c1 (stereo not drawn) [Flurbiprofen, reference compound]

- Mean % remaining at 2 hrs in human Plasma (Plasma stability assay): 83.38%
- Log D @ pH 7.40 Mean [2]: 3.26
- recovery at 120 min, 10 μM ([3]; read-out: A to B % Recovery): 42.6%
- recovery at 120 min, 10 μM ([3]; read-out: B to A % Recovery): 58.5%
- Papp A→B at 120 min, 10 μM [3]: 10.9 ×10⁻⁶ cm/s
- Papp B→A at 120 min, 10 μM [3]: 11 ×10⁻⁶ cm/s
Molecule: COc1ccc(-c2ccc3ncc(-c4nnco4)c(NCCCN4CCOCC4)c3c2)cc1 [Compound 43, 6-(4-methoxyphenyl)-N-(3-morpholinopropyl)-3-(1,3,4-oxadiazol-2-yl)quinolin-4-amine]

- inhibition at 10 µM [1, 6]: 20%
Molecule: CNc1c(-c2nnco2)cnc2ccc(-c3ccc(OC)cc3)cc12 [Compound 77, 6-(4-methoxyphenyl)-N-methyl-3-(1,3,4-oxadiazol-2-yl)quinolin-4-amine]

Molecule: Cc1ccc(-c2ccc3ncc(-c4nnco4)c(NCCCn4ccnc4)c3c2)cc1 [Compound 29, N-(3-(1H-imidazol-1-yl)propyl)-3-(1,3,4-oxadiazol-2-yl)-6-p-tolylquinolin-4-amine]
- IC50 [4]: 3750 nM
- IC50 ([1]; recombinant human TopI): 1060 nM
